In ChEMBL document CHEMBL5465560, “Selectivity Literature for EUbOPEN Chemogenomic Library” (2024) one finds % of control and dTM data, which are given here for 5 compounds.

The target in assay [1] is Mitogen-activated protein kinase 14 (Homo sapiens, UniProt Q16539). Nature of the assay: Selectivity interaction (KinomeScan (DiscoverX)) EUB0001619a MAPK14. The conditions noted are these: at 1 µM.
For assay [2], the target named is Serine/threonine-protein kinase SIK2 (Homo sapiens) (UniProt Q9H0K1). Nature of the assay: Selectivity interaction (KinomeScan (DiscoverX)) EUB0000695a SIK2. The following applies: at 100 nM.
For assay [3], the target named is T1, Ephrin type-B receptor 4 (Homo sapiens) (UniProt P54760).
T1 sequence (whole entry): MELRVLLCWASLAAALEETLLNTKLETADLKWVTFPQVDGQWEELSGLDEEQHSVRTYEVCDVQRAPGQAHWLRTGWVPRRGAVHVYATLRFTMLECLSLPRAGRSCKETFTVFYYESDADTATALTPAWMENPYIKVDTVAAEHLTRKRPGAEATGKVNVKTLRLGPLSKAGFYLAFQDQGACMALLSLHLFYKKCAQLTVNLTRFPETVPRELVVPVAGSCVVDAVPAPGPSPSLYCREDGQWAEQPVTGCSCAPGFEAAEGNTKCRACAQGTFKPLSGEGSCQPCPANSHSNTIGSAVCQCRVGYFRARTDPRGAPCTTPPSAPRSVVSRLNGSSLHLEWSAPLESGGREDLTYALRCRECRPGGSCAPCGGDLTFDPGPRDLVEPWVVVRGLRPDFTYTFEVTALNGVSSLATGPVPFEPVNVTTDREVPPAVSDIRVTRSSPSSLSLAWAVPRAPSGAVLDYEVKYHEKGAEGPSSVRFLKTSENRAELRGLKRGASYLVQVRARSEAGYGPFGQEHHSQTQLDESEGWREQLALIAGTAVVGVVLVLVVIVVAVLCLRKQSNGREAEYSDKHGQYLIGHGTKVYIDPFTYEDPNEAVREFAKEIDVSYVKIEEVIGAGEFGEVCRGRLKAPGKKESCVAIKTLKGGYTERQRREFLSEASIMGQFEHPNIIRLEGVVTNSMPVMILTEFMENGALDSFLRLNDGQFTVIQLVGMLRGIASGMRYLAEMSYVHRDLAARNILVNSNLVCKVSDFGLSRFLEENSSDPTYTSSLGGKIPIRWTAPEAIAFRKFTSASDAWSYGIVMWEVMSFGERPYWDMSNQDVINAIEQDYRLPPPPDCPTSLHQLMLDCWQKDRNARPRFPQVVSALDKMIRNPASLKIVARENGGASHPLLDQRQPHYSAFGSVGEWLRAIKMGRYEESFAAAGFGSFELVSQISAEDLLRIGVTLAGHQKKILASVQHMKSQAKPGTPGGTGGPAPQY
Nature of the assay: Selectivity interaction (KinomeScan (DiscoverX)) EUB0000607a EPHB4. The following applies: at 10 µM.

The target in assay [4] is T2, Tyrosine-protein kinase receptor TYRO3 (Homo sapiens) (UniProt Q06418).
T2 sequence (whole entry): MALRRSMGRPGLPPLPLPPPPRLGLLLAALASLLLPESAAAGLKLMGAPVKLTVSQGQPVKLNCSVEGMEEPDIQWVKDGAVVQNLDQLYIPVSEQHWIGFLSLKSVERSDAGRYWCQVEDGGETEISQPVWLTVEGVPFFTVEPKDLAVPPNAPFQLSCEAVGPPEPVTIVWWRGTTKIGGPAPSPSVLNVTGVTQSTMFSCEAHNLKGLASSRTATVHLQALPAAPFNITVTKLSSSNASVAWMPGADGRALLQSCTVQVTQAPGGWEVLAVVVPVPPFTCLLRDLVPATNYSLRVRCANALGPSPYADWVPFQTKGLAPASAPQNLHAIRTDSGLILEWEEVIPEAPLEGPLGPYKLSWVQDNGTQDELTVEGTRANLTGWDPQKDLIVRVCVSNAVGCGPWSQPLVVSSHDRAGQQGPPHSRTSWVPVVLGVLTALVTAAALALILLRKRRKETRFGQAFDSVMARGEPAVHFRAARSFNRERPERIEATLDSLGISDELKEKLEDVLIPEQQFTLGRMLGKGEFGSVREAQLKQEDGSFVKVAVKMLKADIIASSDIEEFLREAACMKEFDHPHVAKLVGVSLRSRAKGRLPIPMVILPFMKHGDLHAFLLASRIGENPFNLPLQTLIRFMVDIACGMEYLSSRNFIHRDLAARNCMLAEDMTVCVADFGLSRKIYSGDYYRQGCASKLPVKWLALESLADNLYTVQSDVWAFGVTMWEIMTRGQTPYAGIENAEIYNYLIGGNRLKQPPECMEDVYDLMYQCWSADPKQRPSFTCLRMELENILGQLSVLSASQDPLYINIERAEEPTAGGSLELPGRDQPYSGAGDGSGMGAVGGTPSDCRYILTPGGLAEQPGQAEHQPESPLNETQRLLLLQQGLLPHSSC
Nature of the assay: Selectivity interaction (KinomeScan (DiscoverX)) EUB0000655a TYRO3. The conditions noted are these: at 10 µM.

Assay [5] addresses T3, Serine/threonine-protein kinase ULK1 (Homo sapiens) (UniProt O75385).
T3 sequence (whole entry): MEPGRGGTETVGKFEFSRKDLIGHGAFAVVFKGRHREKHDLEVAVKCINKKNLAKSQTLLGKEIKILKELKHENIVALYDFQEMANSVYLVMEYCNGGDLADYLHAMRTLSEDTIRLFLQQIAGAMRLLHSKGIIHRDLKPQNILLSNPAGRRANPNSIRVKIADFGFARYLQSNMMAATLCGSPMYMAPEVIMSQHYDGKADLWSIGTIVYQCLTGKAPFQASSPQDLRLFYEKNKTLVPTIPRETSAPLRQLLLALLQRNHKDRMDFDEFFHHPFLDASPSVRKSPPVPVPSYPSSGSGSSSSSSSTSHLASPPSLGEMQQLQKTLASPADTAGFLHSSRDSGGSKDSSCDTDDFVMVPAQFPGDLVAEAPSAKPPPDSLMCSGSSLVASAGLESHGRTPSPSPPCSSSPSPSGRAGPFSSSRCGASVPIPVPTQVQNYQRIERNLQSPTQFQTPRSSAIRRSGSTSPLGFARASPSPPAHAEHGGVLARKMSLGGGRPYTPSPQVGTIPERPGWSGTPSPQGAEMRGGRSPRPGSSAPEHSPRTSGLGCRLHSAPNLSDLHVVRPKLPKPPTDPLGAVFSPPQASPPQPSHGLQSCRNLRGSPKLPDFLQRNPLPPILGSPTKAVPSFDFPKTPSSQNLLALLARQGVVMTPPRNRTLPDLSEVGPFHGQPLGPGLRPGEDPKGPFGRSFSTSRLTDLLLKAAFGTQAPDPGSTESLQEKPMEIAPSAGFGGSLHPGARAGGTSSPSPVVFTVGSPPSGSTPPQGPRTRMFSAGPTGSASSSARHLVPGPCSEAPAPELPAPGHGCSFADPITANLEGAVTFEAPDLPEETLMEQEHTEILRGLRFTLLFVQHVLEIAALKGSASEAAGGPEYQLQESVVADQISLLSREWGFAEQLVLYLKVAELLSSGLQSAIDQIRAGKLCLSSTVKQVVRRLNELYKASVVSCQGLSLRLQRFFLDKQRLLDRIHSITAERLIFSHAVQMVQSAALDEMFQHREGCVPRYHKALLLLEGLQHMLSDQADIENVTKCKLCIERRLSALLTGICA
Nature of the assay: Selectivity interaction (Kinase panel (DSF assay)) EUB0001558a ULK1.

Chain of Mitogen-activated protein kinase 14 (Q16539 whole entry): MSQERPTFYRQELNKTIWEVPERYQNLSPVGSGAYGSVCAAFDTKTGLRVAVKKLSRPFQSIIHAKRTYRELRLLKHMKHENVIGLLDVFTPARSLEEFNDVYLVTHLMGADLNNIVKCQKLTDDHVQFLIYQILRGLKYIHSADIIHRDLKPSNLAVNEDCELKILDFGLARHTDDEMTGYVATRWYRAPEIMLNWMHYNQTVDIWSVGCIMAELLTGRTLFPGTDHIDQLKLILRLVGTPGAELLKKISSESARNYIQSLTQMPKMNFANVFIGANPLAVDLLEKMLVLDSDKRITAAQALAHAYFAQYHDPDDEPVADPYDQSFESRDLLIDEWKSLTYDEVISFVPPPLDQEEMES
Chain of Serine/threonine-protein kinase SIK2 (Homo sapiens) (Q9H0K1 whole entry, looked up): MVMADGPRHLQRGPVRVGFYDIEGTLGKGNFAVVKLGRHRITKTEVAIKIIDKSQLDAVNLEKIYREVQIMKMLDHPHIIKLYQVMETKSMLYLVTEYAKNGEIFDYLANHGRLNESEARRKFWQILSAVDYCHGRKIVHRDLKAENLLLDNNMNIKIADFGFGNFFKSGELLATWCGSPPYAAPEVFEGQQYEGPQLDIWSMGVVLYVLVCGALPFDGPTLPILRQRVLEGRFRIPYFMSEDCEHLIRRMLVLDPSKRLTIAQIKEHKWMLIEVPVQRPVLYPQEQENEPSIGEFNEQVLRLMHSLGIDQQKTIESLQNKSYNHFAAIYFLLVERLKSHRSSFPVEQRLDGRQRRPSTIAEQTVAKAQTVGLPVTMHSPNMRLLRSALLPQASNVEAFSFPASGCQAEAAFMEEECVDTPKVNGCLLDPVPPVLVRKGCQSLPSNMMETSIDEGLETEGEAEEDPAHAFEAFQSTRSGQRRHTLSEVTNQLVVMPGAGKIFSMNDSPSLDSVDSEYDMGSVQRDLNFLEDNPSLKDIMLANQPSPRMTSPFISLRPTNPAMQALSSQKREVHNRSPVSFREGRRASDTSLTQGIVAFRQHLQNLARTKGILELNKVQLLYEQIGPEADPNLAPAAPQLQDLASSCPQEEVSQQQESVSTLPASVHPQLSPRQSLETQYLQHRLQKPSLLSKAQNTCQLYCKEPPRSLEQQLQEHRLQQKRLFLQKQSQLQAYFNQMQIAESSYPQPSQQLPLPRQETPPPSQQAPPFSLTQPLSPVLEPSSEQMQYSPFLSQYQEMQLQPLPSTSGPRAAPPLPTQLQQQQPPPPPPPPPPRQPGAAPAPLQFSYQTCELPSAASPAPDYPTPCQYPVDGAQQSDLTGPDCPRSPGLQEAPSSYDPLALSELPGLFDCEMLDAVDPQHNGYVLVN

In assay [1], `N#Cc1cccc(-c2c[nH]c3ncnc(N4CCOCC4)c23)c1` registered a % of control of 100%.

In turn, `Cc1cc(F)c(C(=O)Nc2cccc(-c3nncn3C(C)C)n2)cc1-n1cnc(C2CC2)c1` yielded a % of control in assay [2] of 100%.

Take `CNC(=O)Nc1ccc(-c2nc(N3CC4CCC(C3)O4)c3cnn(C4CCC5(CC4)OCCO5)c3n2)cc1`: the % of control in assay [3] amounted to 100%.

In assay [4], `CN(C)CCOc1ccc(-c2nc(-c3ccncc3)c(-c3ccc4c(c3)CC/C4=N\O)[nH]2)cc1` registered a % of control of 100%.

Take `CC(C)(O)[C@H](F)CN1Cc2cc(NC(=O)c3cnn4cccnc34)c(N3CCOCC3)cc2C1=O`: in assay [5], the dTM came to 0.5 K.
